Experimental findings from ChEMBL document CHEMBL2331112, “Synthesis of novel 2-alkyl triazole-3-alkyl substituted quinoline derivatives and their cytotoxic activity” (Bioorg Med Chem Lett, 2013) are described below.

What all share (assay type): functional, cell-based
For assay [1], the system named is THP-1. Briefly: Cytotoxicity against human THP1 cells after 24 hrs by MTT assay. As to conditions: THP-1, 24 h. (Formazan colour is commonly taken as a measure of viable cells.)
Assay [2] relates to U-937. In words: Cytotoxicity against human U937 cells after 24 hrs by MTT assay. The settings on record: U-937, 24 h.
Assay [3] concerns COLO 205. In words: Cytotoxicity against human COLO205 cells after 24 hrs by MTT assay. The settings on record: COLO 205, 24 h.
Assay [4] has as its system HeLa. Briefly: Cytotoxicity against human HeLa cells after 24 hrs by MTT assay.

Values after ≈ are worked out from the molar mass of the structure shown.

For `CCCCCCCCCCn1cc(-c2nc3ccccc3cc2C)nn1`, the half-maximal inhibitory concentration (IC50) (commonly the point on the concentration scale where inhibition reaches its midpoint) in assay [1] was over 100 µg/mL; in assay [2] it was over 100 µg/mL; in assay [3], 44.5 µg/mL (≈ 127 µM); in assay [4], 28.2 µg/mL (≈ 80.4 µM).

Turning to `CCCCCCCCCCn1cc(-c2nc3ccccc3cc2CC)nn1`, the half-inhibitory concentration (IC50) in assay [1] is 34.3 µg/mL (≈ 94 µM); in assay [2], 12.7 µg/mL (≈ 34.9 µM); in assay [3] it was over 100 µg/mL; in assay [4], over 100 µg/mL.

For `CCCCCCCCCCn1cc(-c2nc3ccccc3cc2CCC)nn1`, the IC50 in assay [1] was over 100 µg/mL; in assay [2], 26.6 µg/mL (≈ 70.2 µM); in assay [3], over 100 µg/mL; in assay [4], over 100 µg/mL.

Consider `CCCCCCCCCCn1cc(-c2nc3ccccc3cc2CCCC)nn1`, for which the half-maximal inhibitory concentration (IC50) in assay [1] is over 100 µg/mL; in assay [2] it was 25.2 µg/mL (≈ 64.3 µM); in assay [3] it was over 100 µg/mL; in assay [4] it was over 100 µg/mL.

In the case of `CCCCCCCCCCn1cc(-c2nc3ccccc3cc2CCCCC)nn1`, the half-maximal inhibitory concentration (IC50) was 88 µg/mL (≈ 216 µM) in assay [1], 18.2 µg/mL (≈ 44.7 µM) in assay [2], over 100 µg/mL in assay [3] and over 100 µg/mL in assay [4].

For the molecule `Cc1cc2ccccc2nc1-c1cn(CCC(F)(F)C(F)(F)C(F)(F)C(F)(F)C(F)(F)C(F)(F)C(F)(F)C(F)(F)F)nn1`, the IC50 in assay [1] is over 100 µg/mL; in assay [2], 56.6 µg/mL (≈ 86.2 µM); in assay [3] it was 75.8 µg/mL (≈ 116 µM); in assay [4], over 100 µg/mL.

Consider `CCc1cc2ccccc2nc1-c1cn(CCC(F)(F)C(F)(F)C(F)(F)C(F)(F)C(F)(F)C(F)(F)C(F)(F)C(F)(F)F)nn1`, for which the IC50 was over 100 µg/mL in assay [1], 55.9 µg/mL (≈ 83.4 µM) in assay [2], 95.2 µg/mL (≈ 142 µM) in assay [3] and over 100 µg/mL in assay [4].

Turning to `CCCc1cc2ccccc2nc1-c1cn(CCC(F)(F)C(F)(F)C(F)(F)C(F)(F)C(F)(F)C(F)(F)C(F)(F)C(F)(F)F)nn1`, the IC50 was over 100 µg/mL in assay [1], over 100 µg/mL in assay [2], over 100 µg/mL in assay [3] and 37.8 µg/mL (≈ 55.2 µM) in assay [4].

With `CCCCc1cc2ccccc2nc1-c1cn(CCC(F)(F)C(F)(F)C(F)(F)C(F)(F)C(F)(F)C(F)(F)C(F)(F)C(F)(F)F)nn1`, the half-inhibitory concentration (IC50) was over 100 µg/mL in assay [1], 59.1 µg/mL (≈ 84.6 µM) in assay [2], over 100 µg/mL in assay [3] and 32.8 µg/mL (≈ 47 µM) in assay [4].

On to `CCCCCc1cc2ccccc2nc1-c1cn(CCC(F)(F)C(F)(F)C(F)(F)C(F)(F)C(F)(F)C(F)(F)C(F)(F)C(F)(F)F)nn1`, for which the IC50 in assay [1], in assay [2], in assay [3] and in assay [4] was over 100 µg/mL in each case.

With `Cc1cc2ccccc2nc1-c1cn(-c2ccc(F)cc2)nn1`, the IC50 is over 100 µg/mL in assay [1], 65.6 µg/mL (≈ 215 µM) in assay [2], over 100 µg/mL in assay [3] and over 100 µg/mL in assay [4].

For the molecule `CCc1cc2ccccc2nc1-c1cn(-c2ccc(F)cc2)nn1`, the 50% inhibitory concentration (IC50) in assay [1], in assay [2], in assay [3] and in assay [4] was over 100 µg/mL in each case.

For `CCCc1cc2ccccc2nc1-c1cn(-c2ccc(F)cc2)nn1`, the IC50 in assay [1] is over 100 µg/mL; in assay [2], 67.4 µg/mL (≈ 203 µM); in assay [3], over 100 µg/mL; in assay [4], over 100 µg/mL.

On to `CCCCc1cc2ccccc2nc1-c1cn(-c2ccc(F)cc2)nn1`, for which the IC50 in assay [1] is 78.3 µg/mL (≈ 226 µM); in assay [2], 66.2 µg/mL (≈ 191 µM); in assay [3] it was over 100 µg/mL; in assay [4] it was over 100 µg/mL.

In the case of `CCCCCc1cc2ccccc2nc1-c1cn(-c2ccc(F)cc2)nn1`, the IC50 in assay [1] is over 100 µg/mL; in assay [2] it was 67.5 µg/mL (≈ 187 µM); in assay [3], over 100 µg/mL; in assay [4], over 100 µg/mL.

Consider `O=c1[nH]cc(F)c(=O)[nH]1` [FLUOROURACIL], for which the half-inhibitory concentration (IC50) in assay [1] was 0.54 µg/mL (≈ 4.15 µM); in assay [2], 0.87 µg/mL (≈ 6.69 µM); in assay [3], 4.03 µg/mL (≈ 31 µM); in assay [4] it was 1.28 µg/mL (≈ 9.84 µM).
